Assay results published in patent publication US9561220B2, “Group of alkaloids, the novel autophagic enhancers for treatment of cancers and neurodegenerative conditions thereof” (Macau University of Science and Technology, priority 2014, dated 2017).

System: panel of human cancer cells (HeLa, MCF-7, HepG2, Hep3B, H1299, A549, PC3)
Experiment: cells
Format: cell-based
Details: Homo sapiens, 72 h, read-out: mean IC50 value (cell cytotoxicity)
Experimental: The test compounds of liensinine, isoliensinine, dauricine, cepharanthine, hernandezine and thalidezine were dissolved in DMSO at a final concentration of 100 mmol/L and stored at −20° C. Cytotoxicity was assessed using the 3-(4,5-dimethylthiazol-2-yl)-2,5-diphenyltetrazolium bromide assay as described previously. 4000-8000 HeLa (human cervical cancer), MCF-7 (human breast cancer), HepG2 (human liver cancer), Hep3B (human liver cancer), H1299 (human lung cancer), A549 (human lung cancer), PC3 (human prostate cancer) and LO2 (human normal liver) cells were seeded on 96-well plates per well. After overnight pre-incubation, the cells were exposed to different concentrations of liensinine, isoliensinine, dauricine, cepharanthine, hernandezine and thalidezine (0.039-100 μmol/L) for 3 days. Specifically, the following concentrations are used for all of the above alkaloids: […], 0.039 μmol/L. Subsequently, 10 μL of MTT reagents was added to each well and incubated at 37° C. for 4 hours followed by the addition of 100 μL solubilization buffer (10% SDS in 0.01 mol/L HCl) and overnight incubation. Absorbance at 585 nm was determined from each well on the following day. The percentage of cell viability was calculated using the following formula: Cell viability (%)=Cells number treated/Cells number DMSO control×100. Data was obtained from three independent experiments.

Structure (SMILES): COc1ccc2cc1Oc1ccc(cc1)C[C@H]1c3c(cc4c(c3Oc3cc5c(cc3OC)CCN(C)[C@@H]5C2)OCO4)CCN1C [cepharanthine]
- IC50: 4.52 to 61.8 µM
